Where a SMILES comes first, the peptide text is derived from it. Bridges are numbered along the chain shown (N, C = ends).
Assays:
chick osteoclasts = assay: chick osteoclast / total cell detachment assay; type: cell-based; conditions: FIG. 5
Experimental: Peptides were evaluated for their ability to detach osteoclasts from a matrix consisting of serum-coated microtiter plates. In prescreening assays, 5 μM of the various RGD peptides was used to identify RGD peptides that released at least 60% of the osteoclasts from the matrix.
Osteoclasts were isolated from embryonic chicks using a modification of the methods of Boyde et al., Br. Dent. J. 156:216 (1984) and Chambers et al., Endocrinology 116:234 (1985), each of which is incorporated herein by reference. […]
The cells were incubated for 90 min at 37° C. in an atmosphere containing 10% CO2. […] Cell layers were stained for 5 min using 0.1% crystal violet and multinucleated osteoclasts were counted by light microscopy. […]
RGD peptides that are selective for releasing osteoclasts, but not the other cell types, from the matrix were identified by extracting the crystal violet stain from fixed cells and comparing the amount of staining in a control well (no peptide) with the amount of staining following incubation of the cells with an RGD peptide. Crystal violet was extracted using 20% acetic acid and the optical density of the resulting solution was measured in 96 well microtiter plates by spectrophotometry at 562 nm. […]

rat osteoclasts = assay: rat osteoclast attachment assay compared with MG63 or NRK cell attachment; type: cell-based; conditions: FCS substrate, FIGS. 7 and 8
Experimental: To determine the effect of a peptide on the attachment of rat osteoclasts in vitro, 100 μl aliquots of the rat pup bone cell suspension described in Example II.B.2., above, were added in triplicate to 96 well "MAXISORP" plates coated with specific substrates or with FCS. Substrate coated plates were used to determine the ability of peptides to inhibit attachment or induce detachment of an osteoclast from a ligand such as vitronectin, fibronectin, osteopontin or collagen I (Collaborative Research), which are ligands present in bone. Substrates were added to 96 well plates (50 μl of a 5-10 μg/ml solution in sodium carbonate, pH 9.5) and incubated for 2 hr at 37° C. For FCS control wells, 100 μl 10% FCS was added. Wells were aspirated, then washed 2×with PBS and blocked with 1% bovine serum albumin in PBS for 2 hr at 37° C. Wells were aspirated and washed again 2× with PBS. Cells were seeded in duplicate at 4×10^4 cells/well. […]
Following incubation, the medium and nonadherent cells were removed by aspiration from each well. […] Adherent osteoclasts were counted by light microscopy. […]
MG63 and NRK cell lines were purchased from ATTC (Rockville Md.). […] Following staining, the stain was extracted with 20% acetic acid and the OD562 of the extracted stain was determined. […]
Selectivity of a peptide can be determined by comparing the results of FIGS. 7 and 8 (see, also FIG. 2).

Swiss-Webster mice = assay: PTH-induced hypercalcemia assay; type: in vivo; conditions: single dose, infused 4 hr after PTH
From the text: Parathyroid hormone (PTH) activates osteoclasts, which are involved in bone resorption. Associated with the increased osteoclast activity is an increase in serum calcium. The PTH-induced hypercalcemia assay measures the level of serum calcium, which is an indication of bone resorption in a subject (Fischer et al., Endocrinology 132:1411-1413 (1993), which is incorporated herein by reference).
Swiss-Webster mice, which had been parathyroidectomized two weeks prior to beginning the assay, were obtained from Taconic Lab Animals and Services (Germantown N.Y.). Femoral vein catheters (PE-50 fused with PE10 polyethylene tubing; Becton Dickinson; Parsippany, N.J.) were installed in the mice, flushed and locked with heparinized saline (1:10), sutured to adjacent muscle and internalized within the inguinal space of the incision before closing the incision with wound clips. […]
The experiment was initiated by feeding the mice a calcium-deficient diet overnight, then injecting the mice the following morning with a bolus of 0.2 mg PTH/kg (hPTH 1-34; Bachem; Torrance Calif.), intravenously. […] Various doses of a peptide or vehicle were infused into an animal for 4 hr, then ionized serum calcium again was measured. […] Serum calcium measurements were expressed as the difference between the value 30 min before the PTH pulse and 4 hr after peptide infusion was started. […]

[1] = system: αV β3 integrin, osteoclasts; assay: series of assays of Example II for potency and selectivity (summary, FIG. 2)
From the text: Peptides of the RGDNTic (SEQ ID NO: 56) pharmacophore group are characterized, in general, as having increased potency, whereas the peptides of the pharmacophore RGDDV (SEQ ID NO: 1) group generally have higher receptor selectivity. […] As used herein, the term "potency" or "potent" means that a peptide of the invention is active at a relatively low concentration in the assays described in Examples II and III. A potent peptide of the invention can be identified, for example, using the assays described in Examples II and III.
Selectivity can be due, for example, to the ability of a peptide of the invention to bind to αV β3 with greater affinity than it binds to other integrins. Thus, in addition to having selectivity, for example, for osteoclast binding to a matrix, a peptide of the invention also can display receptor selectivity and, therefore, more specifically alter receptor-mediated binding to a matrix. As used herein, the term "receptor selectivity" means that a peptide of the invention can bind to one receptor with greater affinity than it can bind to another receptor.

`CC(C)[C@@H]1NC(=O)[C@H](CC(=O)O)NC(=O)[C@H](CC(=O)O)NC(=O)CNC(=O)[C@H](CCCNC(=N)N)NC(=O)CC[C@@H](C(N)=O)NC1=O` [peptide 386, RGDDVE-NH2] (RGDDVE-NH2; lactam N-6) was tested, and the “selective detachment of osteoclasts as compared to other cell types” value (chick osteoclasts) was “selective detachment of osteoclasts”, the “selectivity: osteoclast attachment versus MG63 or NRK attachment” value (rat osteoclasts) was “selective” and the serum calcium level (Swiss-Webster mice) was “relatively low level of serum calcium”. The “potency and selectivity together (summary classification)” value [1] was “both potent and selective”, the “receptor selectivity (summary classification)” value [1] was “particularly receptor selective” and the “activity of peptides with minimally essential elements” value ([1]; FIG. 2) was “demonstrate activity”.
